Data on 104 molecules can be found in PubChem BioAssay AID1996.

Values after ≈ are worked out from the molar mass of the structure shown.

The conditions of the data set: buffer; pH 7.4; 200.0 µM.
In the case of `O=C(O)c1cc2[nH]c3c(c2cc1Cl)CCCC3`, the solubility (kinetic) (as a rule, solubility judged after dilution from a stock solution rather than from solid) was greater than 37.5 µg/mL.
The same measure for `COc1ccccc1C(=O)Nc1nc2ccccc2s1`: less than 0.3 µg/mL; for `Cc1ccccc1C(=O)Nc1ccc(S(=O)(=O)Nc2onc(C)c2C)cc1`: 50.5 µg/mL (≈ 131 µM); for `COc1cc2c(cc1OC)CN(C(=O)/C=C/c1ccc(F)cc1)CC2`: 46.9 µg/mL (≈ 137 µM).
For `COCCOC(=O)C1=C(C)NC2(O)c3ccccc3C(=O)C12O` (centres undefined), the solubility (kinetic) was greater than 47.9 µg/mL.
As for `COc1cc2ncnc(NCc3ccc(C)o3)c2cc1OC`, the solubility (kinetic) is 35 µg/mL (≈ 117 µM).
Under `COc1cc2c(cc1OC)CN(c1ccc(C(F)(F)F)cn1)CC2` stands 34.9 µg/mL (≈ 103 µM); under `O=C(Nc1ccccc1C(=O)Nc1ccccn1)c1cc(F)c(F)cc1Cl`, less than 0.3 µg/mL; under `c1nc(Nc2ccc(N3CCOCC3)cc2)c2ccsc2n1`, greater than 46.9 µg/mL.
With `COc1ccc(CN2CCS(=O)(=O)CC2)cc1OC`, the kinetic solubility was greater than 42.8 µg/mL.
On to `O=C1NC(=O)C(C(CC(=O)c2ccccc2)c2ccccc2)C(=O)N1` (centres undefined), for which the solubility (kinetic) was greater than 50.5 µg/mL.
The same measure for `COc1ccc(C2c3c(noc3C)CC(C)(O)C2C(C)=O)cc1` (centres undefined): greater than 47.3 µg/mL.
Under `COc1ccc(-c2cc(C(=O)NCc3ccco3)c3ccccc3n2)cc1OC` stands 1.7 µg/mL (≈ 4.38 µM); under `CCN1C(=O)CSC1=Nc1ccc(C(=O)O)cc1`, 39 µg/mL (≈ 148 µM).
Under `O=C(CSCc1ccccc1F)NCc1ccccc1` stands greater than 43.4 µg/mL.
Consider `O=S(=O)(c1ccsc1)N1CC=C(c2ccccc2)CC1`, for which the kinetic solubility is 3.8 µg/mL (≈ 12.4 µM).
On to `CC(=O)CC(=O)Nc1ccc(C(N)=O)cc1`, for which the kinetic solubility is greater than 33 µg/mL.
On to `CCN(CC)S(=O)(=O)c1ccc2c(c1)NC(=O)C1CCCN21` (centres undefined), for which the kinetic solubility amounted to 46.6 µg/mL (≈ 144 µM).
In turn, `Cc1cnc(NC(=O)c2ccncc2)s1` returned a kinetic solubility of 30.2 µg/mL (≈ 138 µM).
As to `CC(C)NC(=S)N1CCCN(c2ncccc2[N+](=O)[O-])CC1`, the solubility (kinetic) was greater than 48.5 µg/mL.
The same measure for `CC(C)c1ccc(NC(=O)C2CC(=O)N(C3CCCC3)C2)cc1` (centres undefined): 36.1 µg/mL (≈ 115 µM); for `Cl.ClCCN1C2=NCCCN2c2ccccc21`: greater than 40.8 µg/mL.
On to `COc1nc(N)nc(NC(=O)c2cccs2)c1N=O`, for which the solubility (kinetic) was found to be 25.2 µg/mL (≈ 90.2 µM).
The same measure for `O=C(NCC(c1cccs1)N1CCc2ccccc21)c1ccccc1` (centres undefined): less than 0.4 µg/mL.
The same measure for `Cc1ccsc1CNC1C2CC3CC(C2)CC1C3.Cl` (centres undefined): 39.9 µg/mL; for `Cl.O=C(NCc1ccccc1)N1CCNCC1`: greater than 38.4 µg/mL.
`Cc1cccc(NC(=O)CN2C(=O)CSC2=O)c1` yielded a solubility (kinetic) greater than 39.6 µg/mL.
Under `CSCCCN1CCCC(CO)(Cc2ccccc2F)C1` (centres undefined) stands greater than 46.7 µg/mL.
In turn, `NC(=O)NC(Cc1ccccc1)C(=O)NNC(=O)COc1ccccc1Cl` (centres undefined) yielded a solubility (kinetic) greater than 58.6 µg/mL.
The same measure for `C/C(=N/NC(=O)CNC(=O)c1cccs1)c1ccco1`: greater than 43.7 µg/mL; for `Cc1cc(NC(=O)c2ccc(-c3ccccc3F)o2)no1`: 0.6 µg/mL (≈ 2.1 µM); for `Nc1ccc(-c2c3ccccc3nc3ccccc23)cc1`: less than 0.3 µg/mL.
Take `Cc1cccc(N2C(=O)CN(Cc3cccs3)C2=S)c1`: the kinetic solubility came out at 4.6 µg/mL (≈ 15.2 µM).
The same measure for `COc1ccccc1CNC(=O)Cc1ccccc1`: 24.7 µg/mL (≈ 96.7 µM); for `CC(=O)c1cc2c(cc1NS(=O)(=O)c1ccc(F)cc1)OCO2`: less than 0.7 µg/mL.
Under `COc1ccc(OCCn2ccnc2C)cc1.O=C(O)C(=O)O` stands 41.7 µg/mL.
The same measure for `CC(CNC(=O)c1ccccc1Cl)NC(=O)c1ccccc1Cl` (centres undefined): greater than 52.7 µg/mL.
Consider `O=C(NCc1cccnc1)C(=O)Nc1ccc2c(c1)OCO2`, for which the solubility (kinetic) stood at 42.7 µg/mL (≈ 143 µM).
The same measure for `Cn1ccnc1SC(C(=O)O)c1ccccc1` (centres undefined): greater than 37.2 µg/mL; for `Cc1cccc(C(=O)Oc2cc(C)[nH]c(=O)c2[N+](=O)[O-])c1`: greater than 43.2 µg/mL; for `Cc1ccc(N(CC(=O)NC(C)(C)C)C(=O)CCC(=O)Nc2nccs2)cc1C`: 12.2 µg/mL (≈ 29.3 µM).
Under `Cn1cc(S(=O)(=O)c2ccccc2)n(C)c1=O` stands 31 µg/mL (≈ 123 µM); under `O=C(NCCCN1CCOCC1)c1cc(Cl)ccc1Cl`, 41 µg/mL (≈ 129 µM).
As for `Cc1cccc(NC(=O)N2CCCCCC2)c1C`, the kinetic solubility is greater than 37 µg/mL.
Under `N#CN/C(=N\S(=O)(=O)c1ccccc1)c1ccccc1` stands 32.3 µg/mL (≈ 113 µM).
Regarding `O=C(CCn1c(=O)oc2cc(Cl)ccc21)Nc1ccc(O)cc1`, the solubility (kinetic) was greater than 49.9 µg/mL.
The same measure for `COc1ccc2c(c1)C(=O)N(CCc1ccc(S(=O)(=O)NC(=O)NC3CCCCC3)cc1)C(=O)C2(C)C`: 69.5 µg/mL (≈ 132 µM); for `O=C(O)c1ccccc1OCc1nc2ccccc2s1`: less than 0.6 µg/mL.
With `N#Cc1ccc(NC(=O)CN2C(=O)NC3(CCCC3)C2=O)cc1`, the solubility (kinetic) is greater than 46.8 µg/mL.
Take `O=C(CCCC(=O)c1ccccc1)Nc1ccc(O)cc1`: the kinetic solubility is greater than 42.5 µg/mL.
The same measure for `CCN(CC)c1ccc(C(=O)OCc2c(C)noc2C)cc1`: 2.8 µg/mL (≈ 9.26 µM); for `O=C(O)/C=C\C(=O)Nc1ccc(F)c(F)c1F`: 34.3 µg/mL (≈ 140 µM).
The same measure for `CCN(CC)S(=O)(=O)c1ccc(NCCc2ccccn2)nc1`: 49.2 µg/mL (≈ 147 µM); for `COc1ccc(-n2cnnc2SCC(=O)NC2CCCCC2)cc1`: greater than 52 µg/mL.
The same measure for `Cc1ccc(NC(=O)C2C3CCC(O3)C2C(=O)O)cc1Cl` (centres undefined): 27.8 µg/mL (≈ 89.8 µM); for `CC(C)(C)NS(=O)(=O)c1ccc(/C=C/C(=O)O)cc1`: greater than 42.5 µg/mL.
Turning to `CCOCC(=O)Nc1cc(C)on1`, the solubility (kinetic) was 22.8 µg/mL (≈ 124 µM).
The molecule `CCn1cc(C(=O)N2CCOCC2)c2ccccc21` gave a kinetic solubility greater than 38.7 µg/mL.
For the molecule `Cc1ccccc1NC(=O)COC(=O)c1cc(C)n(C2CC2)c1C`, the kinetic solubility was found to be 5.6 µg/mL (≈ 17.2 µM).
Take `O=C1CC(c2ccccc2)=Nc2ccc(Br)cc2N1`: the solubility (kinetic) is 0.9 µg/mL (≈ 2.86 µM).
The same measure for `CC(=O)NS(=O)(=O)c1ccc(NC(=O)CSc2ccccc2)cc1`: 42.5 µg/mL (≈ 117 µM).
Under `C=CCOc1ccc(/C=C/C(=O)OCC(=O)N2CCN(C(C)=O)CC2)cc1` stands greater than 55.9 µg/mL.
Under `NC(=O)NC(=O)COC(=O)CC12CC3CC(CC(C3)C1)C2` stands 29.2 µg/mL (≈ 99.2 µM); under `C=CCNC(=O)N1CCCC(N2CCN(c3ccccc3OC)CC2)C1` (centres undefined), greater than 53.8 µg/mL.
Consider `Cc1ccc(OCCNC(=O)CNC(=O)c2ccc(Cl)c([N+](=O)[O-])c2)cc1`, for which the kinetic solubility worked out at 12.6 µg/mL (≈ 32.2 µM).
The same measure for `CCOC(=O)c1sc(-c2ccc(Cl)cc2Cl)nc1O`: 28.2 µg/mL (≈ 88.6 µM).
The same measure for `CC(NC(=O)c1cc(F)c(F)cc1Cl)C1CC2CCC1C2` (centres undefined): 5.6 µg/mL (≈ 17.8 µM).
Under `Cc1ccc(N2C(=O)C3C4C=CC(CC4)C3C2=O)cc1Br` (centres undefined) stands less than 0.7 µg/mL.
`CC(=O)c1c(C)[nH]c(C(=O)COC(=O)c2cc(C)oc2C)c1C` registered a solubility (kinetic) of 13.1 µg/mL (≈ 41.3 µM).
For `Cc1cc(C)n2nc(SC(C)C(=O)N(C)C3CCCCC3)nc2n1` (centres undefined), the solubility (kinetic) was greater than 52.1 µg/mL.
Under `O=C(O)c1cc([N+](=O)[O-])ccc1C(=O)Nc1cccc([N+](=O)[O-])c1` stands greater than 49.7 µg/mL; under `CCOC(=O)c1sc(NC(=O)C2CCCCC2)nc1C`, 5 µg/mL (≈ 16.9 µM); under `CC(=O)c1ccc(NC(=O)C(C)NCc2ccc(Cl)cc2)cc1` (centres undefined), 42.9 µg/mL (≈ 130 µM).
Regarding `Cc1ccc(N2CCN(S(=O)(=O)N3CCCCC3)CC2)cc1C`, the kinetic solubility amounted to 1.8 µg/mL (≈ 5.33 µM).
In the case of `O=C(/C=C/c1c(Cl)nc2ccccn12)Nc1ccc(F)cc1`, the solubility (kinetic) was 4.6 µg/mL (≈ 14.6 µM).
With `COc1cc([N+](=O)[O-])ccc1NC(=O)CN1CCCC1`, the solubility (kinetic) came to 37.2 µg/mL (≈ 133 µM).
Take `N/C(=N\OC(=O)c1ccc(Cl)cc1[N+](=O)[O-])c1ccccn1`: the solubility (kinetic) came out at 3 µg/mL (≈ 9.35 µM).
The same measure for `O=C1CSC(=S)N1c1cccc(O)c1`: 29 µg/mL (≈ 129 µM).
In turn, `CCc1cccc(NC(=O)CC2SC(N3CCCC3)=NC2=O)c1` (centres undefined) showed a solubility (kinetic) greater than 49.7 µg/mL.
Under `O=C(NCCCN1CCCC1=O)C1CCCO1` (centres undefined) stands 35.2 µg/mL (≈ 146 µM); under `COc1ccc(NC(=O)NCCN2CCCCC2)cc1`, 33.9 µg/mL (≈ 122 µM).
`Cc1nc(SCCc2ccccc2)[nH]c(=O)c1C`: the kinetic solubility was 10.9 µg/mL (≈ 41.9 µM).
The same measure for `COc1ccc(OC)c(/C=C/C(=O)OCC(=O)N2CCCC2)c1`: greater than 47.9 µg/mL.
The same measure for `O=C(Cc1ccccc1F)NC1CCCc2ccccc21` (centres undefined): 16.7 µg/mL (≈ 58.9 µM); for `CCCCC1C2C(=O)N(c3ccc(C)cc3)C(=O)C2ON1c1ccccc1` (centres undefined): 46.2 µg/mL (≈ 127 µM).
The same measure for `C/C(=N/OC(=O)c1ccc(Cl)cc1Cl)c1oc(C)nc1C`: 1.9 µg/mL (≈ 5.81 µM); for `CC(C)c1nnc(NC(=O)C2CCCO2)s1` (centres undefined): greater than 36.2 µg/mL; for `Fc1ccc(NC(=S)Nc2ccc3nccnc3c2)cc1`: 41.9 µg/mL (≈ 140 µM).
In turn, `Cc1ccccc1OC(C)C(=O)Nc1ccc2c(c1)OCO2` (centres undefined) yielded a solubility (kinetic) of 38.8 µg/mL (≈ 130 µM).
Under `CN(CC(=O)NCCCN1CCOCC1)S(=O)(=O)c1ccc(Cl)cc1` stands greater than 58.5 µg/mL; under `COc1cccc(CNC(=O)c2ccncc2)c1`, 36.3 µg/mL (≈ 150 µM).
As for `O=C(OCc1nc(-c2ccccc2Cl)no1)c1ccco1`, the solubility (kinetic) came to 19 µg/mL (≈ 62.4 µM).
Under `S=C1CSc2ccccc2N1` stands 25.1 µg/mL (≈ 138 µM); under `COc1ccc(CN2CCN(C(=O)CC(C)C)CC2)cc1`, 36.8 µg/mL (≈ 127 µM); under `CN1CCN(C(=O)CSc2nc3c(c(=O)n(C)c(=O)n3C)n2C)CC1`, 48.1 µg/mL (≈ 131 µM).
Under `NCCSc1c(-c2ccc(Cl)cc2)[nH]c2ccccc12` stands greater than 45.4 µg/mL; under `CC(C)c1ccc(S(=O)(=O)NC2CCS(=O)(=O)C2)cc1` (centres undefined), greater than 47.6 µg/mL.
On to `CCc1ccc(NC(=O)c2cc(Br)ccc2Br)cc1`, for which the kinetic solubility was less than 0.8 µg/mL.
`COc1ccc(S(=O)(=O)N2CCOCC2)cc1NC(=O)CC(C)c1ccccc1` (centres undefined) yielded a kinetic solubility of 9.9 µg/mL (≈ 23.7 µM).
The same measure for `O=C(NCc1ccco1)C(=S)N1CCCC1`: greater than 35.7 µg/mL.
Under `Cc1ccc(S(=O)(=O)N2CCOCC2)cc1C(=O)OCC(=O)NC1CCCC1` stands greater than 61.6 µg/mL; under `Nc1ccccc1C(=O)NCCCN1CCN(c2cccc(Cl)c2)CC1`, 12.9 µg/mL (≈ 34.6 µM).
On to `CC(C)n1c(=S)[nH]c2cc(C(F)(F)F)ccc21`, for which the kinetic solubility was found to be 9.1 µg/mL (≈ 35 µM).
Under `Cc1ccc(CNC(=O)CCCN2C(=S)NC(C)(C)CC2C)cc1` (centres undefined) stands 37 µg/mL (≈ 106 µM).
